Data reported in patent US11697648B2, “Fused pyrimidine pyridinone compounds as JAK inhibitors” (THERAVANCE BIOPHARMA R&D IP, LLC, priority 2019, dated 2023).

Columns and labels:
Caco-2 cell monolayers = assay: Caco-2 permeation assay; assay type: in vitro ADME; conditions: 5 μM, A-B direction, with Verapamil (25 μM)
In short: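 Passive A-to-B permeability with P-gp inhibited by verapamil (25 μM); compound at 5 μM, n=2. Both compartments sampled at t0 and t120 and quantified by LC-MS/MS, giving apparent permeability in cm/sec from flux, area and concentration.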

JAK2 = JAK2 (Homo sapiens (Human), UniProt O60674); assay: Biochemical JAK2 kinase assay (LanthaScreen)
Sequence of JAK2 (O60674 whole entry): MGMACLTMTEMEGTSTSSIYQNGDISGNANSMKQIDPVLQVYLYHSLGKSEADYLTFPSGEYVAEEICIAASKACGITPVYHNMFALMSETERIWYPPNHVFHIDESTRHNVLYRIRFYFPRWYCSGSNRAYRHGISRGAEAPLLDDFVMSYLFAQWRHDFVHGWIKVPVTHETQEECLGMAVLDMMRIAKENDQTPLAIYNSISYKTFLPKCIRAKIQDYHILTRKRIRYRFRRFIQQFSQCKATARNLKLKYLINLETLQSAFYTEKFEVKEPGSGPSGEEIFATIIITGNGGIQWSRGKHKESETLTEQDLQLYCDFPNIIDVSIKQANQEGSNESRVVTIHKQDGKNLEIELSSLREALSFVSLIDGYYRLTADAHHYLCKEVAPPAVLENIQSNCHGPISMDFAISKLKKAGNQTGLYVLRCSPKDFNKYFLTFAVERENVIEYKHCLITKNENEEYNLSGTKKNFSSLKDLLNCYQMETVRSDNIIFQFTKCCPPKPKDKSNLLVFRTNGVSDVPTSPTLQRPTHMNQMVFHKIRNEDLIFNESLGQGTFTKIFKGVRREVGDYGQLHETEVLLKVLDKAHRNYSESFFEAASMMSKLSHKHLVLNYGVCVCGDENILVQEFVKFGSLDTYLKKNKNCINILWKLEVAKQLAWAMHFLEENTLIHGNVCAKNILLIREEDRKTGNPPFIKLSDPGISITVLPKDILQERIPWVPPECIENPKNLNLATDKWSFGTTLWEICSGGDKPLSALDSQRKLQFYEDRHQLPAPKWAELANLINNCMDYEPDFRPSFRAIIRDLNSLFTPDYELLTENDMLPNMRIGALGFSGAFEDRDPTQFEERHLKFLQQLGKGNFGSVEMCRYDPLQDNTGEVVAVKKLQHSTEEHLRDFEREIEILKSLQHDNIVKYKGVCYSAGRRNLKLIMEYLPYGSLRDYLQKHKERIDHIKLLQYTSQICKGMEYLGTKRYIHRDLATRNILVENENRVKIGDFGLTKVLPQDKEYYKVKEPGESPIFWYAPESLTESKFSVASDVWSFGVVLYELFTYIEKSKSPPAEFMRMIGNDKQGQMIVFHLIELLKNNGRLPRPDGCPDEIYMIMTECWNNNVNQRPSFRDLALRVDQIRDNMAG
In short: (§1)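 GST-JAK + GFP-STAT1 peptide, HEPES pH 7.5/MgCl2/EGTA/Brij-35 buffer; cpd preincubation 1 h RT; ATP start, 1 h RT; stop with 10 mM EDTA + 2 nM Tb-anti-pSTAT1; TR-FRET 520/495. 4-parameter IC50 → pKi (Cheng-Prusoff).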

Tyk2 = Tyk2 (Homo sapiens (Human), UniProt P29597); assay: Biochemical Tyk2 kinase assay (LanthaScreen)
Sequence of Tyk2 (P29597 whole entry): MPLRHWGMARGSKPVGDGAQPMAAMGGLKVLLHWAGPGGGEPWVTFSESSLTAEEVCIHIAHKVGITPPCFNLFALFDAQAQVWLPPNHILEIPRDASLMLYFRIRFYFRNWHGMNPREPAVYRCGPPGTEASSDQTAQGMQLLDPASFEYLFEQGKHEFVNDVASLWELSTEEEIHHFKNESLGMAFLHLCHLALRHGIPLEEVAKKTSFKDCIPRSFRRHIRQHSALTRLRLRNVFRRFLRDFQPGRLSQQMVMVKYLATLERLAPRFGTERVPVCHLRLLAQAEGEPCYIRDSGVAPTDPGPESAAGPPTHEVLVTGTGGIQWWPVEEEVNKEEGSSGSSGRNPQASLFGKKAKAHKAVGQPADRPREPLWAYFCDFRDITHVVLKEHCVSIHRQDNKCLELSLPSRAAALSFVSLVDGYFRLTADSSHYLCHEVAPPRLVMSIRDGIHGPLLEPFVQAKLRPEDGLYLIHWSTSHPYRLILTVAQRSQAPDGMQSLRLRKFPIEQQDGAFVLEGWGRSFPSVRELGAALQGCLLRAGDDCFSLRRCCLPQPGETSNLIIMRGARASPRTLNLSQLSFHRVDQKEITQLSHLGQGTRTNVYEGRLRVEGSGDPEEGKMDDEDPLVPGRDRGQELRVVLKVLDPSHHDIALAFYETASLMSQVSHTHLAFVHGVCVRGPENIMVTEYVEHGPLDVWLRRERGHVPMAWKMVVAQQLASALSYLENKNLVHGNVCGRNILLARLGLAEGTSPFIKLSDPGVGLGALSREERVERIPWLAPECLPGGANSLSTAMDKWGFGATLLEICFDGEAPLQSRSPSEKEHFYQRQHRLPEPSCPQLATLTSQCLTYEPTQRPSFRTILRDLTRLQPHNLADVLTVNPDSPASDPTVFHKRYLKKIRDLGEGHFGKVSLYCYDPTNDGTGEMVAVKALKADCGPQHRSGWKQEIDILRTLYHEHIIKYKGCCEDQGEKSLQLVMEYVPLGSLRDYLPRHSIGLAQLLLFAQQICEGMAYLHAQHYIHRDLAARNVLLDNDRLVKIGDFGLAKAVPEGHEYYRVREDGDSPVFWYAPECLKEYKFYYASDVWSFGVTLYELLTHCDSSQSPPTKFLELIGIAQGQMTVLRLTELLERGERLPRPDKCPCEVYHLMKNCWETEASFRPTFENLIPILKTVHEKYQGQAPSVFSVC
In short: as §1

JAK1 = JAK1 (Homo sapiens (Human), UniProt P23458); assay: Biochemical JAK1 kinase assay (LanthaScreen)
Sequence of JAK1 (P23458 whole entry): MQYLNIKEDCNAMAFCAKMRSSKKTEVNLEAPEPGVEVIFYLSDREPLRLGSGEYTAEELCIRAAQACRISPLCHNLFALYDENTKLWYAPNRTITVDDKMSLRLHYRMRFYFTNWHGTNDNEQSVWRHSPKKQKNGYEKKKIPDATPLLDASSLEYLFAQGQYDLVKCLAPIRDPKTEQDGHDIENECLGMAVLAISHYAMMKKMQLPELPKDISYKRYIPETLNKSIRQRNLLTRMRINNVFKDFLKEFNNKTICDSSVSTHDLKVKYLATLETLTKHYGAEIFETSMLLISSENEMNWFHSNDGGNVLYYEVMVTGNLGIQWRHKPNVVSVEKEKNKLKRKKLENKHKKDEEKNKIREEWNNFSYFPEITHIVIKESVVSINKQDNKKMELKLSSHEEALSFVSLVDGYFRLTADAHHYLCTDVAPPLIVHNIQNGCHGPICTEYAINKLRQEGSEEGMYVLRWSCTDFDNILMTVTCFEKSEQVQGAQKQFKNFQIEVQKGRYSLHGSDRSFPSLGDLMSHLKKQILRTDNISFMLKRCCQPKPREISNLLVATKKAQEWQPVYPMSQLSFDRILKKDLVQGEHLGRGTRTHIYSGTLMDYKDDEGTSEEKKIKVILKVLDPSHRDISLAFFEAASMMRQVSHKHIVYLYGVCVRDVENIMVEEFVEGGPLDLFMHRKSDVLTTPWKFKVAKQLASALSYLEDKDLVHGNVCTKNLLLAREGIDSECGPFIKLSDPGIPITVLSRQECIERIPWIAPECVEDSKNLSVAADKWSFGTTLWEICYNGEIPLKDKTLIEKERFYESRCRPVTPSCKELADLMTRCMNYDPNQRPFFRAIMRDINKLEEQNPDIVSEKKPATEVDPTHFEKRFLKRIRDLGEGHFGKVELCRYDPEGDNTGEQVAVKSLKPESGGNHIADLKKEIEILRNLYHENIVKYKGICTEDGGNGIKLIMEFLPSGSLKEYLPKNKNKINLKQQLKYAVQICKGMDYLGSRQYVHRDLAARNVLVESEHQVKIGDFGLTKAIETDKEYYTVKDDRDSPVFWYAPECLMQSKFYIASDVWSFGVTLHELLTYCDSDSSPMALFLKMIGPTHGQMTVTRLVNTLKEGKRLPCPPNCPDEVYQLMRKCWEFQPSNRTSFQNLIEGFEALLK
In short: as §1

[1] = system: IL-2 stimulated STAT5 phosphorylation in Tall-1 human T cell line (JAK3); assay: Cellular JAK3 potency assay: inhibition of IL-2 stimulated pSTAT5 in Tall-1 T cells; assay type: cell-based; conditions: IL-2 stimulated pSTAT5, Tall-1 T cells
In short: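 AlphaLISA SureFire Ultra measures STAT5 Tyr694/699 phosphorylation in lysed Tall-1 human T cells. Cells were exposed to compound for 1 h at 37 °C before a 30 min IL-2 challenge (300 ng/ml final). Values are pIC50 means with standard deviation from signal-versus-concentration curves.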

JAK3 = JAK3 (Homo sapiens (Human), UniProt P52333); assay: Biochemical JAK3 kinase assay (LanthaScreen); conditions: for JAK3 (pKi)-JAK1 (pKi): selectivity JAK3 over JAK1, difference of pKi
Sequence of JAK3 (P52333 whole entry): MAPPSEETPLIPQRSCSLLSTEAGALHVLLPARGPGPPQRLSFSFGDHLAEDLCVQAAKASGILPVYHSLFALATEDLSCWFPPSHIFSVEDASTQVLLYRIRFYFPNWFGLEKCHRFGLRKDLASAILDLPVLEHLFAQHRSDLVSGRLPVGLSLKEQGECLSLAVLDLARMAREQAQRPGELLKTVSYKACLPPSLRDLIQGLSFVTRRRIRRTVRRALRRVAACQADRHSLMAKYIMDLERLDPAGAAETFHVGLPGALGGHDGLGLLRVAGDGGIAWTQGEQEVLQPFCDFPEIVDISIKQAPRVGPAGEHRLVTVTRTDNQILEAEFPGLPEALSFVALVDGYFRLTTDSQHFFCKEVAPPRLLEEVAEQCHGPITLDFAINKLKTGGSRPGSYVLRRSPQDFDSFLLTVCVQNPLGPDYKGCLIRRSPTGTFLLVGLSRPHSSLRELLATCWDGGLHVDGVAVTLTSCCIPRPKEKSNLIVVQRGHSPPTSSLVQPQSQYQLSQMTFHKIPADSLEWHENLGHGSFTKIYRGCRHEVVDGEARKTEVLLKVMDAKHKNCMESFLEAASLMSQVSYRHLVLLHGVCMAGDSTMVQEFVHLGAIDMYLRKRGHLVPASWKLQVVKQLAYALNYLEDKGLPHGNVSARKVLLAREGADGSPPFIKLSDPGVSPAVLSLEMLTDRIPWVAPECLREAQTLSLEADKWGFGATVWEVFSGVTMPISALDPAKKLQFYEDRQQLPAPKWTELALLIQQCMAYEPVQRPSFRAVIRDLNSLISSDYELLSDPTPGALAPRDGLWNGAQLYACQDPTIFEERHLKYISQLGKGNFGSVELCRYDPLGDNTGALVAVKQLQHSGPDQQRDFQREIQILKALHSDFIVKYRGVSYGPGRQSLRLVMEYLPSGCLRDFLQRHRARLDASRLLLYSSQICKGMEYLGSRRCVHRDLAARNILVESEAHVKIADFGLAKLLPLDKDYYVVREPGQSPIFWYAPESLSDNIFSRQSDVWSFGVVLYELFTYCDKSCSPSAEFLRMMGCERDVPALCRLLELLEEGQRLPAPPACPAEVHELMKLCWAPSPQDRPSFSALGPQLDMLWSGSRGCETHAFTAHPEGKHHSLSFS
In short: as §1

Compound	Caco Kp (Caco-2 cell monolayers)	JAK 2 (pKi) (JAK2)	Tyk 2 (pKi) (Tyk2)	JAK 1 (pKi) (JAK1)	Tall-1 (pIC50) [1]	JAK 3 (pKi) (JAK3)	JAK3 (pKi)-JAK1 (pKi) (JAK3)
C=CC(=O)N1CCN(CCn2c(=O)ccc3cnc(Nc4cnn(C5CCN(C)CC5)c4)nc32)[C@@H](CC)C1 [Example 196]	A (A represents a value below 5×10^−6 cm/sec)	E (E represents a pKi value of 7 or below (Ki of 100 nM or above))	E (E represents a pKi value of 7 or below (Ki of 100 nM or above))	E (E represents a pKi value of 7 or below (Ki of 100 nM or above))	B (B represents a pC50 value between 6.7 (included) and 7.5 (IC50 between 200 nM and 32 nM))	B (B represents pKi value between 9 and 10 (Ki between 1 nM and 0.1 nM))	A (A represents a value of 3 or above)
C=CC(=O)N1CC(CCn2c(=O)ccc3cnc(Nc4ccc5[nH]ncc5c4)nc32)C1 [Example 82]	A (A represents a value below 5×10^−6 cm/sec)	E (E represents a pKi value of 7 or below (Ki of 100 nM or above))	E (E represents a pKi value of 7 or below (Ki of 100 nM or above))	E (E represents a pKi value of 7 or below (Ki of 100 nM or above))	C (C represents a pIC50 value between 6 and 6.7 (IC50 between 1 μM and 200 nM))	B (B represents pKi value between 9 and 10 (Ki between 1 nM and 0.1 nM))	A (A represents a value of 3 or above)
C=CC(=O)N1CC(CCn2c(=O)ccc3cnc(Nc4ccc(N5CCN(S(C)(=O)=O)CC5)cc4)nc32)C1 [Example 94]	A (A represents a value below 5×10^−6 cm/sec)	E (E represents a pKi value of 7 or below (Ki of 100 nM or above))	E (E represents a pKi value of 7 or below (Ki of 100 nM or above))	E (E represents a pKi value of 7 or below (Ki of 100 nM or above))	A (A represents a pIC50 value≥7.5 (IC50≤32 nM))	A (A represents a pKi value≥10 (Ki≤0.1 nM))	A (A represents a value of 3 or above)
C=CC(=O)N1CC(CCn2c(=O)ccc3cnc(Nc4ccc5cn[nH]c5c4)nc32)C1 [Example 83]	A (A represents a value below 5×10^−6 cm/sec)	E (E represents a pKi value of 7 or below (Ki of 100 nM or above))	E (E represents a pKi value of 7 or below (Ki of 100 nM or above))	E (E represents a pKi value of 7 or below (Ki of 100 nM or above))	C (C represents a pIC50 value between 6 and 6.7 (IC50 between 1 μM and 200 nM))	B (B represents pKi value between 9 and 10 (Ki between 1 nM and 0.1 nM))	A (A represents a value of 3 or above)
C=CC(=O)N1CC(CCn2c(=O)ccc3cnc(Nc4cnn(C5CCN(C(=O)CSC)CC5)c4)nc32)C1 [Example 210]	A (A represents a value below 5×10^−6 cm/sec)	E (E represents a pKi value of 7 or below (Ki of 100 nM or above))	E (E represents a pKi value of 7 or below (Ki of 100 nM or above))	E (E represents a pKi value of 7 or below (Ki of 100 nM or above))	B (B represents a pC50 value between 6.7 (included) and 7.5 (IC50 between 200 nM and 32 nM))	A (A represents a pKi value≥10 (Ki≤0.1 nM))	A (A represents a value of 3 or above)
C=CC(=O)N1CC(CCn2c(=O)ccc3cnc(Nc4cccc(N5CCN(C(=O)N(C)C)CC5)c4)nc32)C1 [Example 124]	B (B represents a value between 5×10^−6 and 10×10^−6 cm/sec)	E (E represents a pKi value of 7 or below (Ki of 100 nM or above))	E (E represents a pKi value of 7 or below (Ki of 100 nM or above))	E (E represents a pKi value of 7 or below (Ki of 100 nM or above))	B (B represents a pC50 value between 6.7 (included) and 7.5 (IC50 between 200 nM and 32 nM))	A (A represents a pKi value≥10 (Ki≤0.1 nM))	A (A represents a value of 3 or above)
C=CC(=O)N1CC(CCn2c(=O)ccc3cnc(Nc4ccc(N5CCN(C)CC5)cn4)nc32)C1 [Example 137]	A (A represents a value below 5×10^−6 cm/sec)	E (E represents a pKi value of 7 or below (Ki of 100 nM or above))	E (E represents a pKi value of 7 or below (Ki of 100 nM or above))	E (E represents a pKi value of 7 or below (Ki of 100 nM or above))	B (B represents a pC50 value between 6.7 (included) and 7.5 (IC50 between 200 nM and 32 nM))	B (B represents pKi value between 9 and 10 (Ki between 1 nM and 0.1 nM))	A (A represents a value of 3 or above)
C=CC(=O)N1CC(CCn2c(=O)ccc3cnc(Nc4ccc(CN5CCSCC5)cc4)nc32)C1 [Example 86]	C (C represents a value between 10×10^−6 and 30×10^−6 cm/sec)	E (E represents a pKi value of 7 or below (Ki of 100 nM or above))	E (E represents a pKi value of 7 or below (Ki of 100 nM or above))	E (E represents a pKi value of 7 or below (Ki of 100 nM or above))	B (B represents a pC50 value between 6.7 (included) and 7.5 (IC50 between 200 nM and 32 nM))	B (B represents pKi value between 9 and 10 (Ki between 1 nM and 0.1 nM))	A (A represents a value of 3 or above)
C=CC(=O)N1CCN(CCn2c(=O)ccc3cnc(Nc4ccc(N5CCN(C(=O)OC)CC5)cc4)nc32)[C@@H](CC)C1 [Example 190]	C (C represents a value between 10×10^−6 and 30×10^−6 cm/sec)	E (E represents a pKi value of 7 or below (Ki of 100 nM or above))	E (E represents a pKi value of 7 or below (Ki of 100 nM or above))	E (E represents a pKi value of 7 or below (Ki of 100 nM or above))	B (B represents a pC50 value between 6.7 (included) and 7.5 (IC50 between 200 nM and 32 nM))	A (A represents a pKi value≥10 (Ki≤0.1 nM))	A (A represents a value of 3 or above)
C=CC(=O)N1CC(CCn2c(=O)ccc3cnc(Nc4ccc(N5CCN(C(C)=O)[C@@H](C)C5)cc4)nc32)C1 [Example 167]	A (A represents a value below 5×10^−6 cm/sec)	E (E represents a pKi value of 7 or below (Ki of 100 nM or above))	E (E represents a pKi value of 7 or below (Ki of 100 nM or above))	E (E represents a pKi value of 7 or below (Ki of 100 nM or above))	B (B represents a pC50 value between 6.7 (included) and 7.5 (IC50 between 200 nM and 32 nM))	A (A represents a pKi value≥10 (Ki≤0.1 nM))	A (A represents a value of 3 or above)
C=CC(=O)N1CCN(CCn2c(=O)ccc3cnc(Nc4ccc(N5CCN(S(=O)(=O)CCOC)CC5)cc4)nc32)[C@@H](CC)C1 [Example 191]	B (B represents a value between 5×10^−6 and 10×10^−6 cm/sec)	E (E represents a pKi value of 7 or below (Ki of 100 nM or above))	E (E represents a pKi value of 7 or below (Ki of 100 nM or above))	E (E represents a pKi value of 7 or below (Ki of 100 nM or above))	B (B represents a pC50 value between 6.7 (included) and 7.5 (IC50 between 200 nM and 32 nM))	A (A represents a pKi value≥10 (Ki≤0.1 nM))	A (A represents a value of 3 or above)
C=CC(=O)N1CC(CC)(CCn2c(=O)ccc3cnc(Nc4ccc(N5CCN(C(C)=O)CC5)cc4)nc32)C1 [Example 180]	A (A represents a value below 5×10^−6 cm/sec)	E (E represents a pKi value of 7 or below (Ki of 100 nM or above))	E (E represents a pKi value of 7 or below (Ki of 100 nM or above))	E (E represents a pKi value of 7 or below (Ki of 100 nM or above))	B (B represents a pC50 value between 6.7 (included) and 7.5 (IC50 between 200 nM and 32 nM))	B (B represents pKi value between 9 and 10 (Ki between 1 nM and 0.1 nM))	A (A represents a value of 3 or above)
C=CC(=O)N1CC(CCn2c(=O)ccc3cnc(Nc4ccc(N5CCN(C)CC5)cc4F)nc32)C1 [Example 141]	C (C represents a value between 10×10^−6 and 30×10^−6 cm/sec)	E (E represents a pKi value of 7 or below (Ki of 100 nM or above))	E (E represents a pKi value of 7 or below (Ki of 100 nM or above))	E (E represents a pKi value of 7 or below (Ki of 100 nM or above))	B (B represents a pC50 value between 6.7 (included) and 7.5 (IC50 between 200 nM and 32 nM))	B (B represents pKi value between 9 and 10 (Ki between 1 nM and 0.1 nM))	A (A represents a value of 3 or above)
